Experiments:
[1] = biological target: Macrophage colony-stimulating factor 1 receptor (Homo sapiens) (UniProt P07333); conditions: Compound concentration 1000.0 nM
[2] = test system: Epidermal growth factor receptor (Homo sapiens), P00533 [L858R]; conditions: Compound concentration 1000.0 nM
[3] = test system: Mast/stem cell growth factor receptor Kit (Homo sapiens), P10721 [V559D,T670I]; conditions: Compound concentration 1000.0 nM
[4] = biological target: Myotonin-protein kinase (Homo sapiens) (UniProt Q09013); conditions: Compound concentration 1000.0 nM
[5] = biological target: Mitogen-activated protein kinase 9 (Homo sapiens) (UniProt P45984); conditions: Compound concentration 1000.0 nM
[6] = biological target: Serine/threonine-protein kinase MRCK beta (Homo sapiens) (UniProt Q9Y5S2); conditions: Compound concentration 1000.0 nM
[7] = biological target: cGMP-dependent protein kinase 2 (Homo sapiens) (UniProt Q13237); conditions: Compound concentration 1000.0 nM
Chain of cGMP-dependent protein kinase 2 (Homo sapiens) (Q13237 whole entry): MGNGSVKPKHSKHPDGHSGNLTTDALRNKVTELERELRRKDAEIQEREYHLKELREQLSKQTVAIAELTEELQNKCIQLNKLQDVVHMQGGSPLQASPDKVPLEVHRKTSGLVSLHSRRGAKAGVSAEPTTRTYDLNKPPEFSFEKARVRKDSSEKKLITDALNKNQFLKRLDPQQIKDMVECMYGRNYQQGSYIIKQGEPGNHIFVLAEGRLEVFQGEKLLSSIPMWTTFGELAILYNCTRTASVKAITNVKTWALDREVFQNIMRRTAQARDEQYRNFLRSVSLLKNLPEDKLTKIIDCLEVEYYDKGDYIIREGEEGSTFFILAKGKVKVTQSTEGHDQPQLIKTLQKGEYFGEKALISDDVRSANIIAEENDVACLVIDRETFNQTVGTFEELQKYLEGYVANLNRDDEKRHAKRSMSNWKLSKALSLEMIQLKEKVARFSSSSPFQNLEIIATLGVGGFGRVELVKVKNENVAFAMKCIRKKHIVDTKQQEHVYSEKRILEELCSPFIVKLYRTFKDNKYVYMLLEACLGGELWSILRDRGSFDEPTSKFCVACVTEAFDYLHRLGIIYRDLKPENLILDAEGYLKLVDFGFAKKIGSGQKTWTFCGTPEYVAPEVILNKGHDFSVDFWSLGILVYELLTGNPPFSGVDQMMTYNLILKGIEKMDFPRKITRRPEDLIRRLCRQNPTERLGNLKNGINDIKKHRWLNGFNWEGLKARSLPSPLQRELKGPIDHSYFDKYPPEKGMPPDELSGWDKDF

[8] = biological target: Mitogen-activated protein kinase 6 (Homo sapiens) (UniProt Q16659); conditions: Compound concentration 1000.0 nM
[9] = biological target: Serine/threonine-protein kinase BRSK2 (Homo sapiens) (UniProt Q8IWQ3); conditions: Compound concentration 1000.0 nM
[10] = biological target: cGMP-dependent protein kinase 1 (Homo sapiens) (UniProt Q13976); conditions: Compound concentration 1000.0 nM
[11] = test system: Phosphatidylinositol 4,5-bisphosphate 3-kinase catalytic subunit alpha isoform (Homo sapiens), P42336 [H1047Y]; conditions: Compound concentration 1000.0 nM
[12] = biological target: Cytoplasmic tyrosine-protein kinase BMX (Homo sapiens) (UniProt P51813); conditions: Compound concentration 1000.0 nM
[13] = test system: Receptor-type tyrosine-protein kinase FLT3 (Homo sapiens), P36888 [D835V]; conditions: Compound concentration 1000.0 nM
[14] = biological target: Testis-specific serine/threonine-protein kinase 3 (Homo sapiens) (UniProt Q96PN8); conditions: Compound concentration 1000.0 nM
[15] = biological target: Rhodopsin kinase GRK7 (Homo sapiens) (UniProt Q8WTQ7); conditions: Compound concentration 1000.0 nM
[16] = test system: Epidermal growth factor receptor (Homo sapiens), P00533 [UNDEFINED MUTATION]; conditions: Compound concentration 1000.0 nM
[17] = biological target: Casein kinase II subunit alpha' (Homo sapiens) (UniProt P19784); conditions: Compound concentration 1000.0 nM
Chain of Casein kinase II subunit alpha' (Homo sapiens) (P19784 whole entry, looked up): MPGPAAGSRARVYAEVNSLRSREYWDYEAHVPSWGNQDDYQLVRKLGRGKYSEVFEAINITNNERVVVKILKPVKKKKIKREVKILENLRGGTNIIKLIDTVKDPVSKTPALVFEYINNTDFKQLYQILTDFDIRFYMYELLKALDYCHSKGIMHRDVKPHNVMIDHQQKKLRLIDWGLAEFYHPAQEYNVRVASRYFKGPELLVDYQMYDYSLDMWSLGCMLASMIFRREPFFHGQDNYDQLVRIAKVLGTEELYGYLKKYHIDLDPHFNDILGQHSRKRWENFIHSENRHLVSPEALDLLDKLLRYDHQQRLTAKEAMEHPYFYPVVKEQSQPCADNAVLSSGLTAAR

[18] = biological target: D(1B) dopamine receptor (Homo sapiens) (UniProt P21918); conditions: Compound concentration 10.0 uM
[19] = biological target: Protein kinase C epsilon type (Homo sapiens) (UniProt Q02156); conditions: Compound concentration 1000.0 nM
Chain of Protein kinase C epsilon type (Homo sapiens) (Q02156 whole entry): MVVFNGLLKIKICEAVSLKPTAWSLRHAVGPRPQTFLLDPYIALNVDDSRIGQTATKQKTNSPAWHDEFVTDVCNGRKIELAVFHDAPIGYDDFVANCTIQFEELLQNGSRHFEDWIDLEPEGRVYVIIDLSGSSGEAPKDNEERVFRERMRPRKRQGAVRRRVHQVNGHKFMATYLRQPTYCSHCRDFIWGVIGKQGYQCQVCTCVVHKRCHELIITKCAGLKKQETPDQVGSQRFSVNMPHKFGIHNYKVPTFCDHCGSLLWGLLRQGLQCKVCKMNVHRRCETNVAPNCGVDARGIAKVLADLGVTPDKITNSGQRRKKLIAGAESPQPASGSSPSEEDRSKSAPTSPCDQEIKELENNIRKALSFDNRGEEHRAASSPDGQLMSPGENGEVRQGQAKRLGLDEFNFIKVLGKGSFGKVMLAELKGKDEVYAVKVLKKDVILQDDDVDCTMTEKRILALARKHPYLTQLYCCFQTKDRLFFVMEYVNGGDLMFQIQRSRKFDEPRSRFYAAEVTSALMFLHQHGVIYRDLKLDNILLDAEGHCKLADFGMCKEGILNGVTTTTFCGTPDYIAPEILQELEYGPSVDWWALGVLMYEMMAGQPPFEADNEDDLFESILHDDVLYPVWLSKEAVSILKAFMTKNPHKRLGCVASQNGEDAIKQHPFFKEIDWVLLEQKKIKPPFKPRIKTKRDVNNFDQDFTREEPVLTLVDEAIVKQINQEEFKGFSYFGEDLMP

[20] = biological target: 5-hydroxytryptamine receptor 2B (Homo sapiens) (UniProt P41595); conditions: Compound concentration 10.0 uM
[21] = biological target: Casein kinase I isoform alpha-like (Homo sapiens) (UniProt Q8N752); conditions: Compound concentration 1000.0 nM
Chain of Casein kinase I isoform alpha-like (Homo sapiens) (Q8N752 whole entry, canonical isoform): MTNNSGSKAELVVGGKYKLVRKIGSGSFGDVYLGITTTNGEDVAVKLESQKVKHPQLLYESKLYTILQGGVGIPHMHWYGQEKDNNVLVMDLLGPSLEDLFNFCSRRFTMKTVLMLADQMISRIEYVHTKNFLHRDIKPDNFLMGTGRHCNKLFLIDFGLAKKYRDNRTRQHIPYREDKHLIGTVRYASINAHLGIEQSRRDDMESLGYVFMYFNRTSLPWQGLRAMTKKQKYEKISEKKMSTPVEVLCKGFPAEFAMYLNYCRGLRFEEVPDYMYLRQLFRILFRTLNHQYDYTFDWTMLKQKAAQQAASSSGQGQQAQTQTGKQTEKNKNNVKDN

[22] = biological target: Proto-oncogene tyrosine-protein kinase ROS (Homo sapiens) (UniProt P08922); conditions: Compound concentration 1000.0 nM
Chain of Proto-oncogene tyrosine-protein kinase ROS (Homo sapiens) (P08922 whole entry): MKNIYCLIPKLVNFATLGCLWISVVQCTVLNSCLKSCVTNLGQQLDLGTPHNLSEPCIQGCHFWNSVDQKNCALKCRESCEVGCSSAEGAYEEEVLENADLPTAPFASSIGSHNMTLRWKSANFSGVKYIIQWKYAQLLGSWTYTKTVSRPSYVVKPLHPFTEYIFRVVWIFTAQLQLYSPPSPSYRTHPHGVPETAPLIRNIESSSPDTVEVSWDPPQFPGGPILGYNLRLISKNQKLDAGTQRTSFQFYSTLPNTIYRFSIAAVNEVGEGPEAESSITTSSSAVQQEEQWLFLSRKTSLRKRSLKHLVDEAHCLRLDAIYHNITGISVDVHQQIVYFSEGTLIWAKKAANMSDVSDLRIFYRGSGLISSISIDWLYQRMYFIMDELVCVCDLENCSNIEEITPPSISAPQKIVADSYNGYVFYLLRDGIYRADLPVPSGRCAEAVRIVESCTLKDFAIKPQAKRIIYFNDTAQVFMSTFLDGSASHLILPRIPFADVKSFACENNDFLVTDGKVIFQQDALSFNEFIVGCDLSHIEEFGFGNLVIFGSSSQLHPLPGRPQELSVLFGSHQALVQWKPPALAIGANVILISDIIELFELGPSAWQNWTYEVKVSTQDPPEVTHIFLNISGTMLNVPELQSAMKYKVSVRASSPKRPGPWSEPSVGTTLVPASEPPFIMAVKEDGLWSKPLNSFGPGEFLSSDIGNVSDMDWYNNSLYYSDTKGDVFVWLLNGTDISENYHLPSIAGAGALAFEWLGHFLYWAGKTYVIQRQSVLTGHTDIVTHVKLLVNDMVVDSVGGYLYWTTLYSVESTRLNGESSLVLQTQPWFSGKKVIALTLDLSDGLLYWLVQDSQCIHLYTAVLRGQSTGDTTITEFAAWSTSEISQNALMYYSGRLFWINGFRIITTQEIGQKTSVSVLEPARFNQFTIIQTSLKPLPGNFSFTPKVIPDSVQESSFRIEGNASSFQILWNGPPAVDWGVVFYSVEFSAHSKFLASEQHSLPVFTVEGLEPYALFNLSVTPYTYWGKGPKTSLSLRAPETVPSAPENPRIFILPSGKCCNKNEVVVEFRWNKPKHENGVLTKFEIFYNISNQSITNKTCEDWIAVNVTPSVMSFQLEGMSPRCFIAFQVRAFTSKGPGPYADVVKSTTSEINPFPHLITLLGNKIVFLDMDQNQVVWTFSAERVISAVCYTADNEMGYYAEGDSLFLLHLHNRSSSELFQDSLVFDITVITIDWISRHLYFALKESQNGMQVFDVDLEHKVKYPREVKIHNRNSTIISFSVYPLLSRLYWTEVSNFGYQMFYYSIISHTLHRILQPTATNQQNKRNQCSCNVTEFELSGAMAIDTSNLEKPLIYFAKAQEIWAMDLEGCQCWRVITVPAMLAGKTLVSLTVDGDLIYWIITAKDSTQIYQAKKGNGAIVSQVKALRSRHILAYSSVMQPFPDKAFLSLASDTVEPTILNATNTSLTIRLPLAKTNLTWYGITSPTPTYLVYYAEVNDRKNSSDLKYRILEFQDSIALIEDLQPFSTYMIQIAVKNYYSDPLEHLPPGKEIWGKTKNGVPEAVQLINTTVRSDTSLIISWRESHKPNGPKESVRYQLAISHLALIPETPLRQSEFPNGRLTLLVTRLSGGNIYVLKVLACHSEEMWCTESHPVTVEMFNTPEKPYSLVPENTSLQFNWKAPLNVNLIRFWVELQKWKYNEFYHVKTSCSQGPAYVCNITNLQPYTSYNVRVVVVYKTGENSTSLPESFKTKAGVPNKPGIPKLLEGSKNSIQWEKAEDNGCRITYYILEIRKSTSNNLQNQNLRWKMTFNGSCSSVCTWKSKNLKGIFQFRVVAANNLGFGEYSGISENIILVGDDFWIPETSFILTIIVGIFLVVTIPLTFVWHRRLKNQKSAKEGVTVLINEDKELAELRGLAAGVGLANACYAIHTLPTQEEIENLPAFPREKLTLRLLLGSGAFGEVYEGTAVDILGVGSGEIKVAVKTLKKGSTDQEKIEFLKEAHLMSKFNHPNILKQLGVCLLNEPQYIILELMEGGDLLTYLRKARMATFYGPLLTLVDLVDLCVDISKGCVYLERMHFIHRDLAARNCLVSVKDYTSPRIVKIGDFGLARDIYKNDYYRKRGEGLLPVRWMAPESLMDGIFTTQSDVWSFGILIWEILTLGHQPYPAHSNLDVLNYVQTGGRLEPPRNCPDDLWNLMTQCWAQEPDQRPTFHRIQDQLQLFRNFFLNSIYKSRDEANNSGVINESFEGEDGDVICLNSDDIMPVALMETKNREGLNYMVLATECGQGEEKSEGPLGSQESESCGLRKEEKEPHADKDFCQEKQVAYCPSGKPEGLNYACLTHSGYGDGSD

[23] = test system: Epidermal growth factor receptor (Homo sapiens), P00533 [G719C]; conditions: Compound concentration 1000.0 nM
[24] = biological target: Serine/threonine-protein kinase PAK 1 (Homo sapiens) (UniProt Q13153); conditions: Compound concentration 1000.0 nM
[25] = biological target: Tyrosine-protein kinase Lyn (Homo sapiens) (UniProt P07948); conditions: Compound concentration 1000.0 nM
[26] = biological target: Mitogen-activated protein kinase kinase kinase kinase 1 (Homo sapiens) (UniProt Q92918); conditions: Compound concentration 1000.0 nM
[27] = biological target: Casein kinase I isoform gamma-2 (Homo sapiens) (UniProt P78368); conditions: Compound concentration 1000.0 nM
[28] = biological target: cAMP-dependent protein kinase catalytic subunit PRKX (Homo sapiens) (UniProt P51817); conditions: Compound concentration 1000.0 nM
[29] = biological target: Ribosomal protein S6 kinase alpha-3 (Homo sapiens) (UniProt P51812); conditions: Compound concentration 1000.0 nM
[30] = biological target: Ephrin type-A receptor 2 (Homo sapiens) (UniProt P29317); conditions: Compound concentration 1000.0 nM
[31] = test system: Tyrosine-protein kinase ABL1 (Homo sapiens), P00519 [H396P]; conditions: Compound concentration 1000.0 nM
[32] = biological target: Rho-associated protein kinase 1 (Homo sapiens) (UniProt Q13464); conditions: Compound concentration 1000.0 nM
[33] = biological target: 5'-AMP-activated protein kinase catalytic subunit alpha-1 (Homo sapiens) (UniProt Q13131); conditions: Compound concentration 1000.0 nM
[34] = biological target: Myosin light chain kinase 2, skeletal/cardiac muscle (Homo sapiens) (UniProt Q9H1R3); conditions: Compound concentration 1000.0 nM
[35] = biological target: Activin receptor type-1B (Homo sapiens) (UniProt P36896); conditions: Compound concentration 1000.0 nM
[36] = test system: Epidermal growth factor receptor (Homo sapiens), P00533 [L861Q]; conditions: Compound concentration 1000.0 nM
[37] = test system: Epidermal growth factor receptor (Homo sapiens), P00533 [L858R,T790M]; conditions: Compound concentration 1000.0 nM
[38] = biological target: RAF proto-oncogene serine/threonine-protein kinase (Homo sapiens) (UniProt P04049); conditions: Compound concentration 1000.0 nM
[39] = biological target: Tyrosine-protein kinase Srms (Homo sapiens) (UniProt Q9H3Y6); conditions: Compound concentration 1000.0 nM
Chain of Tyrosine-protein kinase Srms (Homo sapiens) (Q9H3Y6 whole entry): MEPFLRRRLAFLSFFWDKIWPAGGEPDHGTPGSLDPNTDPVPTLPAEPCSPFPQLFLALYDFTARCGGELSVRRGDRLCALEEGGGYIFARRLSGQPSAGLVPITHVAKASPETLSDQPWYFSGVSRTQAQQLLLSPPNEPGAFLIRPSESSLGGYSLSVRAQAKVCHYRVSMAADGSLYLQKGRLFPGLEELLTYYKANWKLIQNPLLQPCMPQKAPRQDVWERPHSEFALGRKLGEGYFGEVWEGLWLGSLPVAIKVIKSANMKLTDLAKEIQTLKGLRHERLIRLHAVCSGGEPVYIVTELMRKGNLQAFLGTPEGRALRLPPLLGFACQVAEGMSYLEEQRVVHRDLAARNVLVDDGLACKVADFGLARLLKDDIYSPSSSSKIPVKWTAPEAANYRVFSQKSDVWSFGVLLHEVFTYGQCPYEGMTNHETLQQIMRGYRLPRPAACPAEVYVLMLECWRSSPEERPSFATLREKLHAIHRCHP

[40] = biological target: Mitogen-activated protein kinase kinase kinase 13 (Homo sapiens) (UniProt O43283); conditions: Compound concentration 1000.0 nM
[41] = biological target: Serine/threonine-protein kinase Nek10 (Homo sapiens) (UniProt Q6ZWH5); conditions: Compound concentration 1000.0 nM
[42] = biological target: Serine/threonine-protein kinase SIK2 (Homo sapiens) (UniProt Q9H0K1); conditions: Compound concentration 1000.0 nM
[43] = test system: Epidermal growth factor receptor (Homo sapiens), P00533 [UNDEFINED MUTATION]; conditions: Compound concentration 1000.0 nM; remark: listed apart in the source
[44] = biological target: MAP kinase-activated protein kinase 5 (Homo sapiens) (UniProt Q8IW41); conditions: Compound concentration 1000.0 nM
[45] = biological target: TGF-beta receptor type-2 (Homo sapiens) (UniProt P37173); conditions: Compound concentration 1000.0 nM

CC(=O)N1CCC(c2ccc(C(=O)NC3=NCCN3)cc2C(F)(F)F)CC1 [BI 0054]
residual activity [1]: 100% | residual activity [2]: 100% | residual activity [3]: 100% | residual activity [4]: 100% | residual activity [5]: 92% | residual activity [6]: 100% | residual activity [7]: 100% | residual activity [8]: 100% | residual activity [9]: 100% | residual activity [10]: 100% | residual activity [11]: 100% | residual activity [12]: 100% | residual activity [13]: 97% | residual activity [14]: 100% | residual activity [15]: 87% | residual activity [16]: 100% | residual activity [17]: 100% | inhibition [18]: -9.82% | residual activity [19]: 84% | inhibition [20]: -2.75% | residual activity [21]: 100% | residual activity [22]: 99% | residual activity [23]: 100% | residual activity [24]: 98% | residual activity [25]: 94% | residual activity [26]: 100% | residual activity [27]: 100% | residual activity [28]: 100% | residual activity [29]: 99% | residual activity [30]: 94% | residual activity [31]: 100% | residual activity [32]: 0.5% | residual activity [33]: 100% | residual activity [34]: 100% | residual activity [35]: 100% | residual activity [36]: 100% | residual activity [37]: 100% | residual activity [38]: 100% | residual activity [39]: 89% | residual activity [40]: 100% | residual activity [41]: 93% | residual activity [42]: 100% | residual activity [43]: 100% | residual activity [44]: 88% | residual activity [45]: 100%

CC(=O)N1CCC(c2ccc(C(=O)NC(=N)N)cc2C(F)(F)F)CC1 [BI 9627]
residual activity [1]: 100% | residual activity [2]: 100% | residual activity [3]: 100% | residual activity [4]: 100% | residual activity [5]: 95% | residual activity [6]: 100% | residual activity [7]: 100% | residual activity [8]: 100% | residual activity [9]: 100% | residual activity [10]: 100% | residual activity [11]: 100% | residual activity [12]: 100% | residual activity [13]: 92% | residual activity [14]: 100% | residual activity [15]: 97% | residual activity [16]: 100% | residual activity [17]: 100% | inhibition [18]: -8.21% | residual activity [19]: 100% | inhibition [20]: -8.79% | residual activity [21]: 100% | residual activity [22]: 100% | residual activity [23]: 100% | residual activity [24]: 100% | residual activity [25]: 100% | residual activity [26]: 100% | residual activity [27]: 100% | residual activity [28]: 100% | residual activity [29]: 100% | residual activity [30]: 100% | residual activity [31]: 60% | residual activity [32]: 87% | residual activity [33]: 97% | residual activity [34]: 85% | residual activity [35]: 93% | residual activity [36]: 91% | residual activity [37]: 100% | residual activity [38]: 100% | residual activity [39]: 80% | residual activity [40]: 100% | residual activity [41]: 92% | residual activity [42]: 100% | residual activity [43]: 100% | residual activity [44]: 100% | residual activity [45]: 100%

From ChEMBL document CHEMBL4507279, “Data for DCP probe BI-9627” (2021)
